Experiments:
[1] = target: T1, Eukaryotic elongation factor 2 kinase (Homo sapiens) (UniProt O00418); experiment: Inhibition of human EEF2K assessed as residual activity at 1 uM relative to control
T1 sequence (whole entry): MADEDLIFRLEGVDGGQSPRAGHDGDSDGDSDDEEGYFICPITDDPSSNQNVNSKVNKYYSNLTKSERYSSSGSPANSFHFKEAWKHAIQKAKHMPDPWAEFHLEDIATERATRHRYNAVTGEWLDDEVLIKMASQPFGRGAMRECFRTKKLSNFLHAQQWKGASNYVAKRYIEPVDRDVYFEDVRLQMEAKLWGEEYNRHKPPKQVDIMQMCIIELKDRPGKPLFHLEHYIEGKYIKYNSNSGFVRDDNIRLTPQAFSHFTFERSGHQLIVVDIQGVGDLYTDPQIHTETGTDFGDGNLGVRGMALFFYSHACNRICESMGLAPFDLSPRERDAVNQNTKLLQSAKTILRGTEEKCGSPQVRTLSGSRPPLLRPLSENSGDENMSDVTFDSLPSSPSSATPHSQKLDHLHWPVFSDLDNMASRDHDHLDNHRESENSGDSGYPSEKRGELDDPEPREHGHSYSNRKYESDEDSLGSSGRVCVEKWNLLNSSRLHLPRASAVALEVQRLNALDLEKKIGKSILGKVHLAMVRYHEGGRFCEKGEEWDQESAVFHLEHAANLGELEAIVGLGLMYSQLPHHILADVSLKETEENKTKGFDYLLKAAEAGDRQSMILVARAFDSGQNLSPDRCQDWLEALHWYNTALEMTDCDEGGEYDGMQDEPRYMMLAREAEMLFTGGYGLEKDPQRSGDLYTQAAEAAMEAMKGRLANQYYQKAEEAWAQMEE

[2] = target: Homeodomain-interacting protein kinase 2 (Homo sapiens) (UniProt Q9H2X6); experiment: Inhibition of human HIPK2 assessed as residual activity at 1 uM relative to control
Chain of Homeodomain-interacting protein kinase 2 (Homo sapiens) (Q9H2X6 whole entry, looked up): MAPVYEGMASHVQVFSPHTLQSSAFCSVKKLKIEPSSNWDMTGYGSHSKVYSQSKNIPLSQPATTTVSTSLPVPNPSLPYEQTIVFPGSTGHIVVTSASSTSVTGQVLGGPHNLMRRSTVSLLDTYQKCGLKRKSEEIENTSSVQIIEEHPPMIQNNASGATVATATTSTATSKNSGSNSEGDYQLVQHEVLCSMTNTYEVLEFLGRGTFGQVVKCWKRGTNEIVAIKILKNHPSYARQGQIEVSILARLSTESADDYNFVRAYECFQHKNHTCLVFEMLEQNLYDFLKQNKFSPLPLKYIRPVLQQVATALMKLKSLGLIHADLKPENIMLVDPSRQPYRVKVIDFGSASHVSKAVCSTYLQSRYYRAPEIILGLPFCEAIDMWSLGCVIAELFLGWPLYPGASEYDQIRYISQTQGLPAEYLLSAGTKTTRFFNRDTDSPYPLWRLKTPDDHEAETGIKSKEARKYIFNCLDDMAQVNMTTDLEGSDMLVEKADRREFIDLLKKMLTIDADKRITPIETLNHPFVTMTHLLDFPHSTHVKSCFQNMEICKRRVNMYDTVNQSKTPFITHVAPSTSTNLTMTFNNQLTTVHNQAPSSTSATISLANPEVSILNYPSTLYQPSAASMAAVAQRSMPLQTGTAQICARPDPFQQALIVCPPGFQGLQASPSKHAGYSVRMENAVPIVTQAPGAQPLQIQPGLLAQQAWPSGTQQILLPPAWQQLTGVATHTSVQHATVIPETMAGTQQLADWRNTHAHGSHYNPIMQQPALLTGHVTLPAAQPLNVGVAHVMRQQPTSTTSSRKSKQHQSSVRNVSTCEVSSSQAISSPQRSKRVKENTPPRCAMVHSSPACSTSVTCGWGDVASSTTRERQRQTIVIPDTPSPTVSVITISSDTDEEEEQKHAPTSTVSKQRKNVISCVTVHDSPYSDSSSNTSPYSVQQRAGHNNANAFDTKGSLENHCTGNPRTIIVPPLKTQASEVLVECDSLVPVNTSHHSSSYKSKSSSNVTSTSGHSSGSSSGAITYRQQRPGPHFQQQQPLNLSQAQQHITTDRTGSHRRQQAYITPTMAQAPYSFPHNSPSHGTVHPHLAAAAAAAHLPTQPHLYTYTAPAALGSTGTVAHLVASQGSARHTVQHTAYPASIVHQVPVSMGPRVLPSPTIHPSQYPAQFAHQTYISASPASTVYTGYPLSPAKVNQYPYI

[3] = target: Calcium/calmodulin-dependent protein kinase kinase 2 (Homo sapiens) (UniProt Q96RR4); experiment: Inhibition of human CAMKK2 assessed as residual activity at 0.1 uM relative to control
Chain of Calcium/calmodulin-dependent protein kinase kinase 2 (Homo sapiens) (Q96RR4 2-588 limits assumed): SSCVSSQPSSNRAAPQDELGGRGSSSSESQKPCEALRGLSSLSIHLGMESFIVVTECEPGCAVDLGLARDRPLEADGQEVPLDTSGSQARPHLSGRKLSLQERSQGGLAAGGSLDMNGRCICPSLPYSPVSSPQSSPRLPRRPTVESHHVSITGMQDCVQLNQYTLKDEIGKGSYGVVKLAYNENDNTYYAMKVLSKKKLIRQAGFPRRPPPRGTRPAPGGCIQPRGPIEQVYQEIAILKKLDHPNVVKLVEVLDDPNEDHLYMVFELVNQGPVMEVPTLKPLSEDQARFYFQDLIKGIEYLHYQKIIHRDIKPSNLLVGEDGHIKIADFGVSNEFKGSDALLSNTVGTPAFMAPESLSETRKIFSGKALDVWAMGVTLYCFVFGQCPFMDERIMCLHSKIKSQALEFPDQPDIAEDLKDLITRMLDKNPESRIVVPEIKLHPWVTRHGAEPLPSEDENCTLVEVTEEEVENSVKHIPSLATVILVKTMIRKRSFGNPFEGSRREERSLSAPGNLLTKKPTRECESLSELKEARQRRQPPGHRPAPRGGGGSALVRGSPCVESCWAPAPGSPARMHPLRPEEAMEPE

[4] = target: T2, Interleukin-1 receptor-associated kinase 4 (Homo sapiens) (UniProt Q9NWZ3); experiment: Inhibition of human untagged IRAK4 assessed as residual activity at 1 uM relative to control
T2 sequence (whole entry): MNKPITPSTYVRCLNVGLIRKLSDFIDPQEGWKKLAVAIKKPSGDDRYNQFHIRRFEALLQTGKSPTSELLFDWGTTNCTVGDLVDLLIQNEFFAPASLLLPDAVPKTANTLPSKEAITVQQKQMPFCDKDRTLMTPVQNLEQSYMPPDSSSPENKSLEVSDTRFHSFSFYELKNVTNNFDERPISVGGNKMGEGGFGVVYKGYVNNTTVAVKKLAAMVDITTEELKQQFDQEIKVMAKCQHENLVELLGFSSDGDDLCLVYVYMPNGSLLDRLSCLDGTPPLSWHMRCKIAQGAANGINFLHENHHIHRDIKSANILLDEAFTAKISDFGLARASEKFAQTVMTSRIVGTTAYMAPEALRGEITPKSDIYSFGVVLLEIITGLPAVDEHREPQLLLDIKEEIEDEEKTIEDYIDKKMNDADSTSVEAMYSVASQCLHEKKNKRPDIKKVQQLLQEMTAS

[5] = target: Serine/threonine-protein kinase Chk2 (Homo sapiens) (UniProt O96017); experiment: Inhibition of human CHK2 assessed as residual activity at 0.1 uM relative to control
[6] = target: Receptor-interacting serine/threonine-protein kinase 2 (Homo sapiens) (UniProt O43353); experiment: Inhibition of human RIPK2 assessed as residual activity at 0.1 uM relative to control
[7] = target: Mitogen-activated protein kinase kinase kinase 11 (Homo sapiens) (UniProt Q16584); experiment: Inhibition of human MAP3K11 assessed as residual activity at 1 uM relative to control
[8] = target: Calcium/calmodulin-dependent protein kinase type 1D (Homo sapiens) (UniProt Q8IU85); experiment: Inhibition of human CAMK1D assessed as residual activity at 1 uM relative to control
[9] = target: Protein kinase C alpha type (Homo sapiens) (UniProt P17252); experiment: Inhibition of human PKCalpha assessed as residual activity at 0.1 uM relative to control
[10] = target: Glycogen synthase kinase-3 beta (Homo sapiens) (UniProt P49841); experiment: Inhibition of human GSK3-beta assessed as residual activity at 1 uM relative to control
[11] = target: Serine/threonine-protein kinase PAK 4 (Homo sapiens) (UniProt O96013); experiment: Inhibition of human PAK4 assessed as residual activity at 1 uM relative to control
Chain of Serine/threonine-protein kinase PAK 4 (Homo sapiens) (O96013 whole entry, looked up): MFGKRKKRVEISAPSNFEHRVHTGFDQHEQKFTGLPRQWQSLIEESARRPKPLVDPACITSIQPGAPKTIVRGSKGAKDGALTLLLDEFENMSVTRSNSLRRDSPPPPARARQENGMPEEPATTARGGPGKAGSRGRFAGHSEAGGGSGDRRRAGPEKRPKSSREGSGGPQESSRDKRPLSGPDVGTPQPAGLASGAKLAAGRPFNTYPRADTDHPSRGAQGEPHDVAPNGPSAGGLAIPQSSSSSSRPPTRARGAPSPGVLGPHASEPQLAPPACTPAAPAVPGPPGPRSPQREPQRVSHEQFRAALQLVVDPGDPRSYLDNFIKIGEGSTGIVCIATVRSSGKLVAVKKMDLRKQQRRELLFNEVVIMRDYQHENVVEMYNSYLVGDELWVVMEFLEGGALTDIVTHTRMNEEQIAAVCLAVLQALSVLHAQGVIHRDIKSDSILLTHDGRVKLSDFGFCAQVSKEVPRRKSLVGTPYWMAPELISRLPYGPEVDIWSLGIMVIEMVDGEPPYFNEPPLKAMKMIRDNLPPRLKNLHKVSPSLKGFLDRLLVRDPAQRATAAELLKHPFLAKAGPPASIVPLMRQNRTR

[12] = target: Myosin light chain kinase, smooth muscle (Homo sapiens) (UniProt Q15746); experiment: Inhibition of human MYLK assessed as residual activity at 1 uM relative to control
Chain of Myosin light chain kinase, smooth muscle (Homo sapiens) (Q15746 whole entry): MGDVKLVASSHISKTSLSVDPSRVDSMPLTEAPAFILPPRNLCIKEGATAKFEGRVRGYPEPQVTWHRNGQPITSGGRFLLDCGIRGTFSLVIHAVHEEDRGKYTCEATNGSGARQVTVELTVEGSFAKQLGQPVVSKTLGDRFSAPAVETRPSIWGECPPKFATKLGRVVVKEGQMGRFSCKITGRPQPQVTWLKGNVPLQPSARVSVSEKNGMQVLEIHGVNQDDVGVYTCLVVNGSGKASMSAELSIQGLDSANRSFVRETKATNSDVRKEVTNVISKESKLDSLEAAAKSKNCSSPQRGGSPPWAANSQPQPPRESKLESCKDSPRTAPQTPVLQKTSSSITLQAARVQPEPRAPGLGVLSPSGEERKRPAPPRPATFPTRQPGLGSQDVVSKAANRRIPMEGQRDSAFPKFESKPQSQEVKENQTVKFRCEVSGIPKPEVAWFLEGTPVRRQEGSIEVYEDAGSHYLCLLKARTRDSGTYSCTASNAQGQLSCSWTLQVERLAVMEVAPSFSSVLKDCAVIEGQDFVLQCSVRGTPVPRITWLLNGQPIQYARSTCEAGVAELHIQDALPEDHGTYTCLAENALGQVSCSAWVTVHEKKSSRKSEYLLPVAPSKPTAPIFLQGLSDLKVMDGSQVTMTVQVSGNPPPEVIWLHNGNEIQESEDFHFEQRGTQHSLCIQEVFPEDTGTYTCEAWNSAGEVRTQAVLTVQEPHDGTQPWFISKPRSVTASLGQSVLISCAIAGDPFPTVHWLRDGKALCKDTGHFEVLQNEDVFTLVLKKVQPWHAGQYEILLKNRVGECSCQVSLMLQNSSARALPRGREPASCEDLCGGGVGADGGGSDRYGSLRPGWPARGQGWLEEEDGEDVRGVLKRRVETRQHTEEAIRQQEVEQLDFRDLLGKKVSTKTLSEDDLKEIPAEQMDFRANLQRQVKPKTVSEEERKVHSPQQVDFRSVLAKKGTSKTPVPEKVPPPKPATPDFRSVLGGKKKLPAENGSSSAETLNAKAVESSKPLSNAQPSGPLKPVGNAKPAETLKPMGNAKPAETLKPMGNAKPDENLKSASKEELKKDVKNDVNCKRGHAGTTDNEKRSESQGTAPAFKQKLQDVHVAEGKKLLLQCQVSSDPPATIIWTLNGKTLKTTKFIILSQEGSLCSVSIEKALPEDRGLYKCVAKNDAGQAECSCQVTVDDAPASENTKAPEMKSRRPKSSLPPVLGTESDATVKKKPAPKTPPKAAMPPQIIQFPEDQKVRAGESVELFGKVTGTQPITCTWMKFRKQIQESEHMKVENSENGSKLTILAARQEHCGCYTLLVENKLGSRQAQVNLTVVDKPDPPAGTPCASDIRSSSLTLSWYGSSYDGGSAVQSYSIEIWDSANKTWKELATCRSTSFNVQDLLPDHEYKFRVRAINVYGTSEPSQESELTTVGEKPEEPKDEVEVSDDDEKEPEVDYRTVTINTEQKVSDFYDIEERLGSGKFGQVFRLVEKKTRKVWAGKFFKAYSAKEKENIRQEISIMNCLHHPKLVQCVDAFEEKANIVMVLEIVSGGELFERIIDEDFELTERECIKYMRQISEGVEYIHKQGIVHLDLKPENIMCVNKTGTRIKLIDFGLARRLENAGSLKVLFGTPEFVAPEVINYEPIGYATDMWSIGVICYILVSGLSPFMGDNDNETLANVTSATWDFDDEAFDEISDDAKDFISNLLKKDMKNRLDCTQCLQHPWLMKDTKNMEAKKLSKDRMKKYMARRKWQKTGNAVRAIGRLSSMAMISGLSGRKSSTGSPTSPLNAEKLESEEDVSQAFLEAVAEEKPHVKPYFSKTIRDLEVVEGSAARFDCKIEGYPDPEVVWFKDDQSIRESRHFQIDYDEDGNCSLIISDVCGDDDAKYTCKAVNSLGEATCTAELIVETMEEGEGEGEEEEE

[13] = target: Tyrosine-protein kinase BTK (Homo sapiens) (UniProt Q06187); experiment: Inhibition of human BTK assessed as residual activity at 1 uM relative to control
Homo sapiens = organism: Homo sapiens; experiment: Inhibition of human S6K assessed as residual activity at 1 uM relative to control
[14] = target: Receptor tyrosine-protein kinase erbB-4 (Homo sapiens) (UniProt Q15303); experiment: Inhibition of human ERBB4 assessed as residual activity at 0.1 uM relative to control
[15] = target: Homeodomain-interacting protein kinase 2 (Homo sapiens) (UniProt Q9H2X6); experiment: Inhibition of human HIPK2 assessed as residual activity at 0.1 uM relative to control
[16] = target: T3, Serine/threonine-protein kinase TBK1 (Homo sapiens) (UniProt Q9UHD2); experiment: Inhibition of human TBK1 assessed as residual activity at 0.1 uM relative to control
T3 sequence (whole entry): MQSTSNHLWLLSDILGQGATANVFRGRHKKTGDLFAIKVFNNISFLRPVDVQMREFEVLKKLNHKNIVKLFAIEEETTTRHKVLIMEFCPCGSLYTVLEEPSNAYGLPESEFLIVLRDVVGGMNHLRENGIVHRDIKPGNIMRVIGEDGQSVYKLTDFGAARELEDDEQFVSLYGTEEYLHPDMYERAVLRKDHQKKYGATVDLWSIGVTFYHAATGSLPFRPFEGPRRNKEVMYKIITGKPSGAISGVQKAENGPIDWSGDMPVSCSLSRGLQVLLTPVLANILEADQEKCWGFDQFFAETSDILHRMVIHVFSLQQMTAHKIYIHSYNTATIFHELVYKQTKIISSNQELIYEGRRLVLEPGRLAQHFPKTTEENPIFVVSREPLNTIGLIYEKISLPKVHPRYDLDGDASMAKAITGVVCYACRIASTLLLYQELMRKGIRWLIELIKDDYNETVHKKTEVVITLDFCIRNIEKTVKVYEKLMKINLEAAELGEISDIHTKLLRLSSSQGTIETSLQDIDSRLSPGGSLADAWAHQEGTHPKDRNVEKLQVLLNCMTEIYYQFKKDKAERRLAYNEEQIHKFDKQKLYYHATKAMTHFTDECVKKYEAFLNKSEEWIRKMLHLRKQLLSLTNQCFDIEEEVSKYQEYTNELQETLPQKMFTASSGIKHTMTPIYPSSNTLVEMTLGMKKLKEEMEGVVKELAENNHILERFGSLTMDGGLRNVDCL

Structure (SMILES) | Activity [1] | Activity [2] | Activity [3] | Activity [4] | Activity [5] | Activity [6] | Activity [7] | Activity [8] | Activity [9] | Activity [10] | Activity [11] | Activity [12] | Activity [13] | Activity (Homo sapiens) | Activity [14] | Activity [15] | Activity [16]
Cn1cc(/C=C2\C(=O)Nc3ccc(S(N)(=O)=O)cc32)c2ccccc21 | 103% | 103% | 62% | 3% | 9% | 102% | 12% | 90% | 106% | 92% | 78% | 90% | 119% | 81% | 94% | 112% | 75%
CN(C)S(=O)(=O)c1ccc2c(c1)/C(=C/c1cn(C)c3ccc(O)cc13)C(=O)N2 | 106% | 96% | 73% | 52% | 94% | 94% | 51% | 103% | 96% | 92% | 90% | 84% | 107% | 92% | 110% | 120% | 96%
COc1ccc2[nH]cc(/C=C3\C(=O)Nc4ccc(S(N)(=O)=O)cc43)c2c1 | 112% | 84% | 83% | 9% | 59% | 96% | 25% | 94% | 104% | 79% | 82% | 83% | 91% | 70% | 94% | 124% | 96%

Now from value to molecule:

Activity [1] | Activity [2] | Activity [3] | Activity [4] | Activity [5] | Activity [6] | Activity [7] | Activity [8] | Activity [9] | Activity [10] | Activity [11] | Activity [12] | Activity [13] | Activity (Homo sapiens) | Activity [14] | Activity [15] | Activity [16] | Structure (SMILES)
102% | 81% | 53% | 20% | 35% | 100% | 38% | 97% | 91% | 83% | 68% | 90% | 107% | 92% | 101% | 108% | 79% | COc1ccc2c(c1)c(/C=C1\C(=O)Nc3ccc(S(N)(=O)=O)cc31)cn2C
86% | 85% | 76% | 83% | 100% | 104% | 37% | 94% | 93% | 97% | 99% | 91% | 89% | 85% | 103% | 109% | 100% | COc1ccc2c(c1)c(/C=C1\C(=O)Nc3ccc(S(=O)(=O)N(C)C)cc31)cn2C
92% | 102% | 56% | 37% | 93% | 108% | 55% | 80% | 101% | 90% | 91% | 90% | 73% | 83% | 98% | 106% | 97% | CNS(=O)(=O)c1ccc2c(c1)/C(=C/c1cn(C)c3ccc(OC)cc13)C(=O)N2
